Reference: article PMC5958115, “A novel small molecule chaperone of rod opsin and its potential therapy for retinal degeneration” (Nature Communications, 2018)
Like-named read-outs stand apart in the source and are kept apart here.

Columns and labels:
mouse P23H-opsin mutant = mouse P23H-opsin mutant (Mus musculus, UniProt P15409, P23H); experiment: β-Gal fragment complementation assay: rescue of P23H opsin transport from ER to plasma membrane, U2OS(PLC-EA/P23H-PK) cells; type: cell-based; settings: for β-Gal fragment complementation assay Activity score (%) Max (fit) / Efficacy: 24 h, 5 µM 9-cis-retinal = 100%, from curve fitting; for dependence of activity on light: cells exposed to light vs dark; for Efficacy (%): normalized to 5 µM 9-cis-retinal
Source text: U2OS(PLC-EA/P23H-PK) cells. A U2OS stable cell line was generated by DiscoveRx, Inc. (Fremont, CA, USA) for the β-Gal fragment complementation assay used in the small-molecule HTS for rescue of P23H-opsin transport. U2OS cells that continually express P23H-PK and PLC-EA fusion proteins were generated. Briefly, this small subunit of β-Gal (PK fragment) was fused to the C-terminal of the mouse P23H-opsin mutant, while the large EA fragment, a subunit of β-Gal, was fused with PLC, a plasma membrane-anchored peptide. Both constructs were subcloned by DicoveRx, Inc. and transferred into U2OS cells by viral infections. Positive clones were selected under treatment with hygromycin and geneticin.
Briefly, U2OS(PLC-EA /P23H-PK) cells were suspended in assay medium at 3 × 10^5 cells mL^−1. The cell suspension was dispensed into 384-well plates (Greiner Bio-one, Monroe, NC, USA) at 20 µL per well, with a Multidrop dispenser (Thermo Scientific, Waltham, MA, USA). Plates with cells then were centrifuged at 200×g for 15 s before incubation at 37 °C with 5% CO2. Plates were removed 24 h later for treatment with tested compounds. A total of 248 plates containing 79,080 compounds from three small-molecule libraries were paired with an equal number of assay plates with cultured cells. Owing to a limited capacity, these plates were assayed in seven batches. An average of 56.3 nL of 10 mM compound in DMSO was dispensed into each well from column 3 to 22 of paired assay plates using a 50 nL 384-pintool system, such that the final concentration of each compound was 22.52 µM on average. […] Each assay plate was shaken for 5 s before further incubation at 37 °C with 5% CO2. After 24 h, assay plates were removed, and each well was incubated with 25 µL of 1× Gal-Screen assay buffer (1:24 substrate-buffer ratio). Assay plates were incubated in the dark for 60–90 min, and luminescence was read from each assay plate with an Envision microplate reader (PerkinElmer) during a 0.1 s per well integration time. The mean and s.d. of readouts in column 2 of each plate were calculated as Mean0% and SD0%, whereas the average and s.d. of readouts in column 23 were calculated as Mean100% and SD100%. Eq. 1: Activity scores (%) = (RLUcp − Mean0%)/(Mean100% − Mean0%) × 100%, where RLUcp is the relative luminescence unit derived for cells treated with a compound. Eq. 2: Z′-factor = 1–3 × (SD0% + SD100%)/(Mean100% − Mean0%)[32]; Eq. 3: signal-to-background (S/B) ratio = Mean100%/Mean0%. Activities of all tested compounds were registered with their compound ID by GeneData Screener (Genedata, Basel, Switzerland) and Pipeline Pilot software (Accelrys, San Diego, CA, USA). Hits, cherry-picked from a separate stock dose-dependent activity test, were selected with an activity score cutoff at 20%. Activity of each hit was tested again with the β-Gal fragment complementation assay in a 10-dose series with each dose tested in triplicate. The 10 doses tested were 80, 40, 20, 10, 5, 2.5, 1.25, 0.625, 0.313, and 0.156 µM. Dose-dependent curves of each hit compound were fitted with GeneData and Origin software.
Detailed synthetic steps are described in Supplementary Note and Supplementary Fig. 9. […] YC-002-YC-021 were purchased from commercial vendors including Enamine LLC (Monmouth Jct., NJ, USA), Matrix Scientific (Columbia, SC, USA) and Tokyo Chemical Industry Co., Ltd. (Portland, OR, USA). […] Activities of YC compounds were tested with the β-Gal fragment complementation assay, as described in a prior section. All YC compounds were tested at 10 doses, each in triplicate: 80, 40, 20, 10, 5, 2.5, 1.25, 0.625, 0.313, and 0.156 µM.

NIH3T3 cells = experiment: Cell number in high-content imaging of NIH3T3 cells; type: cell-based, mouse
Procedure: To characterize the effect of active compounds on the localization of P23H-mutant opsin in mammalian cells, an image-based assay was used with cells immunostained for WT or P23H-mutant opsin protein[18]. Briefly, NIH3T3-(P23H opsin/GFP) or NIH3T3-(WT-opsin/GFP) cells were seeded at 5000 cells per well in a 384-well cell-carrier plate (PerkinElmer) and incubated at 37 °C with 5% CO2 for 2 h. Cells were treated with compounds as described for the β-Gal fragment complementation assay and incubated in assay medium for 24 h. The assay medium then was aspirated, and cells were fixed with 4% paraformaldehyde at 20 µL per well for 20 min at RT. […] Fluorescence images were obtained with the Operetta High Content Imaging System (PerkinElmer) using a ×20 long objective. Five fields were taken of each well for cell images using three channels for fluorescence: GFP (100 ms), Cy3 (300 ms), and DAPI (50 ms). Images were analyzed with Acapella software from the Columbus data storage and analysis system (PerkinElmer)[18]. For cells immunostained with opsin on the non-permeabilized cell membrane only, an average of total fluorescence intensity of Cy3 per cell was used to quantify opsin in each well of the 384-well plate. […]

[1] = 24 h preincubation, activity standardized to 5 µM 9-cis-retinal as 100%, Hill fit, read-out: β-Gal fragment complementation assay Activity score (%) EC50

Row | Compound | β-Gal fragment complementation assay Activity score (%) Max (fit) / Efficacy (mouse P23H-opsin mutant) | EC50 (mouse P23H-opsin mutant; [1]) | dependence of activity on light (mouse P23H-opsin mutant) | concentration that euthanized most cells (NIH3T3 cells; 24 h treatment) | activity in rescuing P23H-opsin transport (in words) (mouse P23H-opsin mutant) | efficacy, % of the control activity score (mouse P23H-opsin mutant; HTS hits, variability between experiments) | effect of co-treatment with 9-cis-retinal (mouse P23H-opsin mutant; YC-001 dose series together with 5 µM 9-cis-retinal) | Efficacy (%) (mouse P23H-opsin mutant; modifications at C4) | EC50 (mouse P23H-opsin mutant; modifications linked to C3 of the furan-2(5H)-one ring, 10 doses 0.156-80 µM, read-out: Potency EC50) | Efficacy (%) (mouse P23H-opsin mutant; modifications of the furan-2(5H)-one ring) | Efficacy (%) (mouse P23H-opsin mutant; more than one site modified) | time to maximum activity (mouse P23H-opsin mutant; time course, Fig. 1f) | effect on cell number (NIH3T3 cells; up to 40 µM)
1 | CC1=C(/C=C/C(C)=C\C=C\C(C)=C\C=O)C(C)(C)CCC1 [9-cis-retinal, reference compound] | 159% | 2.7 µM | required that cells be incubated in the dark | higher than 10 µM |  |  |  |  |  |  |  |  | 
2 | O=C(CCCCCN1C(=O)c2cccc3cccc(c23)C1=O)NO [Scriptaid, reference compound] | 98.2% | 3.09 µM |  |  | strong activity in rescuing P23H opsin transport |  |  |  |  |  |  |  | 
3 | O=C1OCC(c2ccc(Cl)s2)=C1c1cccs1 [YC-001] | 310% | 8.7 µM | not affected |  |  | 150–310% | No additive effect | 248% | 8.39 µM | 248% | 248% | ≤ 15 h | did not affect cell number
